System: immunoglobulin light chain protein WIL-FL T46L
Assay: Differential scanning fluorimetry (thermal shift) assay
Format: binding
Conditions: temperature shift [Tm]compound-[Tm]vehicle, recombinant WIL-FL T46L

Structure (SMILES)	DSF (Table A)	DSF (Table B)
Cc1cc(N2CC[C@](C)(c3ccccc3)C2)cn2nc(C(=O)N3CC4C(C3)C4C(=O)O)nc12 (some centres unmarked) [Compound 158]	***** (>2.5° C.=*****)	–
Cc1cc(N2CC[C@](C)(c3ccccc3)C2)cn2nc(C(=O)NC3CCN(c4cncnc4)C3)nc12 (some centres unmarked) [Compound 190]	***** (>2.5° C.=*****)	–
Cc1ncn(CC2C3COC2(c2nc4c(C)cc(N5CC[C@](C)(c6ccccc6)C5)cn4n2)C3)n1 (some centres unmarked) [Compound 83]	**** (>1.5-2.5° C.=****)	–
Cc1cc(N2CC[C@](C)(c3ccccc3)C2)cn2nc(C34CC(CO3)C4c3nc(NC(=O)C4CC(C(=O)O)C4)n[nH]3)nc12 (some centres unmarked) [Compound 550]	–	***** (>2.5° C.=*****)
Cc1nc(C2C3(CO)COC2(c2nc4c(C)cc(N5CC[C@](C)(c6ccccc6)C5)cn4n2)C3)n[nH]1 (some centres unmarked) [Compound 43]	***** (>2.5° C.=*****)	–
Cc1cc(N2CC[C@](C)(c3ccccc3)C2)cn2nc(C(=O)N3CC[C@@](C)(C(=O)O)C3)nc12 [Compound 126]	***** (>2.5° C.=*****)	–
Cc1cc(N2CC[C@](C)(c3ccccc3)C2)cn2nc(C34CC(CO3)C4N3CC4(CNC4)NC3=O)nc12 (some centres unmarked) [Compound 515]	–	***** (>2.5° C.=*****)
Cc1cc(N2CC[C@](C)(c3ccccc3)C2)cn2nc(C(=O)NC3CCN(c4cccc(C(=O)O)n4)CC34COC4)nc12 (stereo partly drawn) [Compound 20, 6-(9-(8-methyl-6-((R)-3-methyl-3-phenylpyrrolidin-1-yl)-[1,2,4]triazolo[1,5-a]pyridine-2-carboxamido)-2-oxa-6-azaspiro[3.5]nonan-6-yl)picolinic acid]	***** (>2.5° C.=*****)	–
Cc1cc(N2CC[C@](C)(c3ccccc3)C2)cn2nc(C34CC(CO3)C4COC3CC4(CNC4)C3)nc12 (some centres unmarked) [Compound 501]	–	***** (>2.5° C.=*****)
Cc1cc(N2CC[C@](C)(c3ccccc3)C2)cn2nc(C(=O)NCC3(O)CC3)nc12 [Compound 120]	***** (>2.5° C.=*****)	–
Cc1cc(N2CC[C@](CO)(c3ccccc3)C2)cn2nc(C(=O)N3CC[C@@]4(CCN(c5cccc(C(=O)O)n5)C4)C3)nc12 [Compound 332]	***** (>2.5° C.=*****)	–
CCC(=O)NCC12COC(c3nc4c(C)cc(N5CC[C@](C)(c6ccccc6)C5)cn4n3)(C1)C2c1n[nH]c(C)n1 (some centres unmarked) [Compound 588]	–	***** (>2.5° C.=*****)
Cc1cnc(C2(C)CCN(c3cc(C)c4nc(C(=O)N5CC6CN(c7cccc(C(=O)O)n7)CC6C5)nn4c3)C2)nc1 (centres unmarked) [Compound 400]	** (>0.5-1 °C =**)	–
CC(=O)NC12COC(c3nc4c(C)cc(N5CC[C@](C)(c6ccccc6)C5)cn4n3)(C1)C2 [Compound 52]	***** (>2.5° C.=*****)	–
Cc1cc(N2CC[C@](C)(c3ccccc3)C2)cn2nc(C(=O)N3CC4CC3CO4)nc12 (some centres unmarked) [Compound 124]	***** (>2.5° C.=*****)	–
Cc1cc(N2CC[C@](C)(c3ccccc3)C2)cn2nc(C(=O)N3CCCN(c4cccc(C(=O)O)n4)CCC3)nc12 [Compound 288]	***** (>2.5° C.=*****)	–
Cc1cc(N2CC[C@](C)(c3ccccc3)C2)cn2nc(C(=O)N3CCC4(CC3)COCC4N3CC4C(C3)C4C(=O)O)nc12 (some centres unmarked) [Compound 353]	***** (>2.5° C.=*****)	–
Cc1cc(N2CC[C@](C)(c3ccccc3)C2)cn2nc(C(=O)NC3COCC4(C3)CN(c3cccc(C(=O)O)n3)C4)nc12 (stereo partly drawn) [Compound 669, 6-(8-(8-methyl-6-((R)-3-methyl-3-phenylpyrrolidin-1-yl)-[1,2,4]triazolo[1,5-a]pyridine-2-carboxamido)-6-oxa-2-azaspiro[3.5]nonan-2-yl)picolinic acid]	–	***** (>2.5° C.=*****)
Cc1cc(N2CC[C@](C)(c3ccccc3)C2)cn2nc(C34CC(C(=O)NCC(=O)O)(CO3)C4)nc12 [Compound 444]	–	***** (>2.5° C.=*****)
Cc1cc(N2CC[C@](C)(c3ccccc3)C2)cn2nc(C34CC(CNc5cccc(C(=O)O)n5)(CO3)C4)nc12 [Compound 461]	–	***** (>2.5° C.=*****)
Cc1cc(N2CC[C@](C)(c3ccccc3)C2)cn2nc(C(=O)NC(C)(C)CO)nc12 [Compound 153]	***** (>2.5° C.=*****)	–
Cc1cc(N2CC[C@](C)(c3ccccc3)C2)cn2nc(C(=O)NC3CC4(C3)CC(N3CC(C(=O)O)C3)C4)nc12 (some centres unmarked) [Compound 600]	–	***** (>2.5° C.=*****)
Cc1cc(N2CC[C@](C)(c3ccccc3)C2)cn2nc(C(=O)N3CCC4(C3)OCC4N3CC4C(C3)C4C(=O)O)nc12 (some centres unmarked) [Compound 375]	***** (>2.5° C.=*****)	–
Cc1n[nH]c(C2C3(NC(=O)[C@@H]4CC[C@H](C(=O)O)O4)COC2(c2nc4c(C)cc(N5CC[C@](C)(c6ccccc6)C5)cn4n2)C3)n1 (stereo partly drawn) [Compound 538, (2R,5S)-5-((5-(3-methyl-1H-1,2,4-triazol-5-yl)-1-(8-methyl-6-((R)-3-methyl-3-phenylpyrrolidin-1-yl)-[1,2,4]triazolo[1,5-a]pyridin-2-yl)-2-oxabicyclo[2.1.1]hexan-4-yl)carbamoyl)tetrahydrofuran-2-carboxylic acid]	–	***** (>2.5° C.=*****)

Structure (SMILES)	DSF (Table A)	DSF (Table B)
Cc1cc(N2CC(C)(c3ccccc3)CC2=O)cn2nc(C(=O)N3CC[C@@]4(CCN(c5cccc(C(=O)O)n5)C4)C3)nc12 (some centres unmarked) [Compound 387]	** (>0.5-1 °C =**)	–
Cc1cc(N2CC[C@](C)(c3ccccc3)C2)cn2nc(C(=O)NC3CC4CCC3N4c3cccc(C(=O)O)n3)nc12 (some centres unmarked) [Compound 668]	–	***** (>2.5° C.=*****)
Cc1cc(N2CC[C@](C)(c3ccccc3)C2)cn2nc(C34CC(CO3)C4N3CC4(CN(C(=O)C5CC[C@@H](C(=O)O)O5)C4)NC3=O)nc12 (some centres unmarked) [Compound 517]	–	***** (>2.5° C.=*****)
Cc1cc(N2CC[C@](C)(c3ccccc3)C2)cn2nc(C(=O)NC3(C)CCN(c4ccnc(C(=O)O)c4)CC3)nc12 [Compound 282]	***** (>2.5° C.=*****)	–
Cc1n[nH]c([C@H]2[C@H]3CO[C@]2(c2nc4c(C)cc(N5CC[C@](C)(c6ccccc6)C5)cn4n2)C3)n1 [Compound 491, 8-methyl-6-[(3R)-3-methyl-3-phenyl-pyrrolidin-1-yl]-2-[(1R,4S,5R)-5-(3-methyl-1H-1,2,4-triazol-5-yl)-2-oxabicyclo[2.1.1]hexan-1-yl]-[1,2,4]triazolo[1,5-a]pyridine]	–	***** (>2.5° C.=*****)
Cc1cc(N2CC[C@](C)(c3ccccc3)C2)cn2nc(C34CC(C(=O)N5CC6C(C5)C6C(=O)O)(CO3)C4)nc12 (some centres unmarked) [Compound 445]	–	***** (>2.5° C.=*****)
Cc1cc(N2CC[C@](C)(c3ccccc3)C2)cn2nc(C34CC(CO3)C4CN)nc12 (some centres unmarked) [Compound 80]	***** (>2.5° C.=*****)	–
Cc1cc(N2CC[C@](C)(c3ccccc3)C2)cn2nc(C(=O)NCC34COC(C3)C4)nc12 [Compound 122]	***** (>2.5° C.=*****)	–
Cc1cc(N2CC[C@](C)(c3ccccc3)C2)cn2nc(C(=O)N3CCC4(CCN(c5nc(C(=O)O)ccc5C#N)C4)C3)nc12 (some centres unmarked) [Compound 724]	–	***** (>2.5° C.=*****)
Cc1cc(N2CC[C@](C)(c3ccccc3)C2)cn2nc(C(=O)N3CCC4(CCN(c5cccc(N)n5)C4)C3)nc12 (some centres unmarked) [Compound 248]	***** (>2.5° C.=*****)	–
Cc1cc(N2CC[C@](C)(c3ccccc3)C2)cn2nc(C(=O)NC3CC4(C3)CC(N3CC5C(CC(=O)O)C5C3)C4)nc12 (some centres unmarked) [Compound 356]	***** (>2.5° C.=*****)	–
Cc1cc(OC[C@H](C)c2ccccc2)cn2nc(C(=O)N[C@@H]3CC[C@H]3O)nc12 [Compound 319]	***** (>2.5° C.=*****)	–
Cc1cc(N2CC[C@](C)(c3ccccc3)C2)cn2nc(C(=O)NC3CCNC3)nc12 (some centres unmarked) [Compound 101]	***** (>2.5° C.=*****)	–
Cc1cc(N2CC[C@](C)(c3ccccc3)C2)cn2nc(C(=O)N3CCC4C3CC(=O)N4c3cccc(C(=O)O)n3)nc12 (some centres unmarked) [Compound 688]	–	***** (>2.5° C.=*****)
Cc1cc(N2CC[C@](C)(c3ccccc3)C2)cn2nc(C34CC(CO3)C4N3CC4(CCN(c5cccc(C(=O)O)n5)C4)NC3=O)nc12 (stereo partly drawn) [Compound 531, 6-[3-[1-[8-methyl-6-[(3R)-3-methyl-3-phenyl-pyrrolidin-1-yl]-[1,2,4]triazolo[1,5-a]pyridin-2-yl]-2-oxabicyclo[2.1.1]hexan-5-yl]-2-oxo-1,3,7-triazaspiro[4.4]nonan-7-yl]pyridine-2-carboxylic acid]	–	***** (>2.5° C.=*****)
Cc1nc([C@H]2[C@@]3(CO)CO[C@]2(c2nc4c(C)cc(N5CC[C@](C)(c6ccccc6)C5)cn4n2)C3)n[nH]1 [Compound 580, ((1R,4S,5R)-5-(5-methyl-1H-1,2,4-triazol-3-yl)-1-(8-methyl-6-((R)-3-methyl-3-phenylpyrrolidin-1-yl)-[1,2,4]triazolo[1,5-a]pyridin-2-yl)-2-oxabicyclo[2.1.1]hexan-4-yl)methanol]	–	***** (>2.5° C.=*****)
Cc1cc(N2CC(C)(c3ccccc3)C2)cn2nc(C(=O)N3CC[C@@]4(CCN(c5cccc(C(=O)O)n5)C4)C3)nc12 [Compound 398]	***** (>2.5° C.=*****)	–
C[C@]1(c2ccccc2)CCN(c2cc(CN)c3nc(C(=O)N4CC[C@@]5(CCN(c6cccc(C(=O)O)n6)C5)C4)nn3c2)C1 [Compound 345]	***** (>2.5° C.=*****)	–
Cc1cc(N2CC[C@](C)(c3ccccc3)C2)cn2nc(C(=O)N[C@H]3COC[C@@H]3F)nc12 [Compound 121]	***** (>2.5° C.=*****)	–
Cc1cc(N2CC[C@](C)(c3ccccc3)C2)cn2nc(C(=O)NC3CC4(C3)CC(N3C[C@H](F)[C@@H](F)C3)C4)nc12 (some centres unmarked) [Compound 363]	***** (>2.5° C.=*****)	–
Cc1n[nH]c(C2C3(CO)COC2(c2nc4c(C)cc(N5CC6(CCC6c6ccccc6)C5)cn4n2)C3)n1 (centres unmarked) [Compound 578, [1-[8-methyl-6-(7-phenyl-2-azaspiro[3.3]heptan-2-yl)-[1,2,4]triazolo[1,5-a]pyridin-2-yl]-5-(3-methyl-1H1,2,4-triazol-5-yl)-2-oxabicyclo[2.1.1]hexan-4-yl]methanol]	–	***** (>2.5° C.=*****)
Cc1cc(N2CC[C@](C)(c3ccccc3)C2)cn2nc(C(=O)N3CC[C@@]4(CCN(C(=O)C56CC(C(=O)O)(C5)C6)C4)C3)nc12 [Compound 712]	–	***** (>2.5° C.=*****)
Cc1cc(N2CC[C@@](C)(c3ccccc3)C2)cn2nc(C(=O)NCC(O)C(F)(F)F)nc12 (some centres unmarked) [Compound 202]	***** (>2.5° C.=*****)	–
